Reference: patent publication US10723707B2, “Heterocyclic substituted 2-amino quinazoline derivatives for the treatment of viral infections” (JANSSEN SCIENCES IRELAND UNLIMITED COMPANY, priority 2012, dated 2020)

Legend:
Type in all cases: cell-based
human TLR7 = target: T1, human TLR7 (Homo sapiens, UniProt Q9NYK1); assay: TLR7 cellular NFκB-luc reporter assay in transiently transfected HEK293 cells; conditions: lowest effective concentration, 6 hours incubation
T1 construct: expressed in transfected cells; host or cells: HEK293
T1 sequence (Q9NYK1 27-1049): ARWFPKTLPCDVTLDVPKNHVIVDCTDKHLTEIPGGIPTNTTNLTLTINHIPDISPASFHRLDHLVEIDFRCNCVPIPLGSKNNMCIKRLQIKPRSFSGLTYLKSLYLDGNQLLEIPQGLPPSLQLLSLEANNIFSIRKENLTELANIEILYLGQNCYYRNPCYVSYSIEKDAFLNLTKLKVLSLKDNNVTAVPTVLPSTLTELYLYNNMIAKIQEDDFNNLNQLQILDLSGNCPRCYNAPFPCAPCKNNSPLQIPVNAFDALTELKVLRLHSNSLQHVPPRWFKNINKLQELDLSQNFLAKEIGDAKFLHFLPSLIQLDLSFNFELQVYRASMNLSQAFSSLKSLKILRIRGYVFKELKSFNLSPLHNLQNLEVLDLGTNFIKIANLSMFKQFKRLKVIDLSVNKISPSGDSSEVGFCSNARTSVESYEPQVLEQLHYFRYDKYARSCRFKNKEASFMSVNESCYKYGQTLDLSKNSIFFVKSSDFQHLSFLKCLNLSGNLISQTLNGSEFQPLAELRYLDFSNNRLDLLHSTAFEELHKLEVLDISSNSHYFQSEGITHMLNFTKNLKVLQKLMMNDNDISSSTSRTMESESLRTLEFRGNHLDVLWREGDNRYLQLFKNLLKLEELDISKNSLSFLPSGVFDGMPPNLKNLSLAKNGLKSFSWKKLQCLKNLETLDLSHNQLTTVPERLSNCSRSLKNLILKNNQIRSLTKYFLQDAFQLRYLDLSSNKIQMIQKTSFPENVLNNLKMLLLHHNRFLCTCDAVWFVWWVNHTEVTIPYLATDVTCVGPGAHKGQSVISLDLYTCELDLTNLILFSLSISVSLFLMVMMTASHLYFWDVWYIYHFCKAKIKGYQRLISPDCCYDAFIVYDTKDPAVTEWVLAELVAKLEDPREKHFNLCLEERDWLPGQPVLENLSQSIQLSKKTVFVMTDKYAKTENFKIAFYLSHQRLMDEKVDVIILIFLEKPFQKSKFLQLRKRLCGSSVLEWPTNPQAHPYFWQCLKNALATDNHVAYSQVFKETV
Procedure: (§1) The ability of compounds to activate human TLR7 and/or TLR8 was assessed in a cellular reporter assay using HEK293 cells transiently transfected with a TLR7 or TLR8 expression vector and NFκB-luc reporter construct.
(§2) Briefly, HEK293 cells were grown in culture medium (DMEM supplemented with 10% FCS and 2 mM Glutamine). For transfection of cells in 15 cm dishes, cells were detached with Trypsin-EDTA, transfected with a mix of CMV-TLR7 or TLR8 plasmid (1700 ng), NFκB-luc plasmid (850 ng) and a transfection reagent and incubated for 48 h at 37° C. in a humidified 5% CO2 atmosphere. Transfected cells were then washed in PBS, detached with Trypsin-EDTA and resuspended in medium to a density of 1.25×10^5 cells/mL. Forty microliters of cells were then dispensed into each well in 384-well plates, where 200 nL of compound in 100% DMSO was already present. Following 6 hours incubation at 37° C., 5% CO2, the luciferase activity was determined by adding 15 μL of Steady Lite Plus substrate (Perkin Elmer) to each well and readout performed on a ViewLux ultraHTS microplate imager (Perkin Elmer). Dose response curves were generated from measurements performed in quadruplicates. Lowest effective concentrations (LEC) values, defined as the concentration that induces an effect which is at least two fold above the standard deviation of the assay, were determined for each compound.

human TLR8 = target: T2, human TLR8 (Homo sapiens, UniProt Q9NR97); assay: TLR8 cellular NFκB-luc reporter assay in transiently transfected HEK293 cells; conditions: lowest effective concentration, 6 hours incubation
T2 construct: expressed in transfected cells; host or cells: HEK293
T2 sequence (Q9NR97 27-1041): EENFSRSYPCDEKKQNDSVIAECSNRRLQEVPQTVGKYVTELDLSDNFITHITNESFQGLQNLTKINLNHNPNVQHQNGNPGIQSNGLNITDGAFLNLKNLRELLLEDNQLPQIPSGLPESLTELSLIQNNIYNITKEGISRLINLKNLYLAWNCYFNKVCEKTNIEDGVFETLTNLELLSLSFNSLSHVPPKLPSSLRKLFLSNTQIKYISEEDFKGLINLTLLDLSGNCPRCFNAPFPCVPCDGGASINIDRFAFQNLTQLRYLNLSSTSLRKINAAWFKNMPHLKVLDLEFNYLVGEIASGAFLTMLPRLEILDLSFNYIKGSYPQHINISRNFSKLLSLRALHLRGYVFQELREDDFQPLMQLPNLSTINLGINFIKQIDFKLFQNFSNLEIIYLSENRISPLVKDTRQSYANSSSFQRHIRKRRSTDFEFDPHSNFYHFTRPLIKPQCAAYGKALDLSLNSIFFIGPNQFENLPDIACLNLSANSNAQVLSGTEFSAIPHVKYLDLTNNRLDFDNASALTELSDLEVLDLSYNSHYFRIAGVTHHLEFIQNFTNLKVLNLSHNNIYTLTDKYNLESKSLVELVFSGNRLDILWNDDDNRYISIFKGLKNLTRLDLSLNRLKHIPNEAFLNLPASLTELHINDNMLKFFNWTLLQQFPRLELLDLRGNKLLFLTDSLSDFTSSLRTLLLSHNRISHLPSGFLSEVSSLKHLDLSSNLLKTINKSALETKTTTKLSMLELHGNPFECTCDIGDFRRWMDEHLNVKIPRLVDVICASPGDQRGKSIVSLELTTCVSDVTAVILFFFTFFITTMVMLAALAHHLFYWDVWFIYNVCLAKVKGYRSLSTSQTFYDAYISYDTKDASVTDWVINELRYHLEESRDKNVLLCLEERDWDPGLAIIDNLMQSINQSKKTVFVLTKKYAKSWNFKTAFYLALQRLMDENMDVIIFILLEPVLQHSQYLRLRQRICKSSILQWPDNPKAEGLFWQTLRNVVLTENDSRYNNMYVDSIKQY
Procedure: as §1, §2

[1] = system: interferon-stimulated responsive elements (ISRE); assay: Activation of ISRE promoter elements in HEK-ISREluc cells by conditioned media from PBMC; conditions: Homo sapiens, compound concentration applied to PBMCs, supernatant transferred to HEK-ISREluc cells, 24 hours, read-out: HEK-ISRE luc (LEC)
Procedure: The potential of compounds to induce IFN-I was also evaluated by measuring the activation of interferon-stimulated responsive elements (ISRE) by conditioned media from PBMC. The ISRE element of sequence GAAACTGAAACT (SEQ ID: 1) is highly responsive to the STAT1-STAT2-IRF9 transcription factor, activated upon binding of IFN-I to their receptor IFNAR (Clontech, PT3372-5W). The plasmid pISRE-Luc from Clontech (ref. 631913) contains 5 copies of this ISRE element, followed by the firefly luciferase ORF. A HEK293 cell line stably transfected with pISRE-Luc (HEK-ISREluc) was established to profile the conditioned PBMC cell culture media.
Briefly, PBMCs were prepared from buffy coats of at least two donors using a standard Ficoll centrifugation protocol. Isolated PBMCs were resuspended in RPMI medium supplemented with 10% human AB serum and 2×10^5 cells/well were dispensed into 384-well plates containing compounds (70 μL total volume). After overnight incubation, 10 μL of supernatant was transferred to 384-well plates containing 5×10^3 HEK-ISREluc cells/well in 30 μL (plated the day before). Following 24 hours of incubation, activation of the ISRE elements was measured by assaying luciferase activity using 40 μL/well Steady Lite Plus substrate (Perkin Elmer) and measured with ViewLux ultraHTS microplate imager (Perkin Elmer). The stimulating activity of each compound on the HEK-ISREluc cells was reported as LEC value, defined as the compound concentration applied to the PBMCs resulting in a luciferase activity at least two fold above the standard deviation of the assay. The LEC in turn indicates the degree of ISRE activation on transfer of a defined amount of PBMC culture medium. Recombinant interferon α-2a (Roferon-A) was used as a standard control compound.

Row | SMILES | Human TLR 7 (LEC) (human TLR7) | Human TLR 8 (LEC) (human TLR8) | minimal effective concentration [1]
1 | Cc1cc(CNc2nc(N)nc3cccc(F)c23)no1 [Compound 11] | 0.45 µM | 3.09 µM | 0.082 µM
2 | Cc1cc(CNc2nc(N)nc3cccc(CO)c23)no1 [Compound 30] | 0.63 µM | 9.0 µM | 0.14 µM
3 | COc1cccc2nc(N)nc(N[C@H](C)c3cnn(C)c3)c12 (single isomer, unassigned) [Compound 16] | 2.44 µM | 9.14 µM | 0.55 µM
4 | COc1cccc2nc(N)nc(NCc3cc(C)on3)c12 [Compound 12] | 0.047 µM | 1.94 µM | 0.036 µM
5 | Cc1cc(CNc2nc(N)nc3c(F)cccc23)no1 [Compound 14] | 0.65 µM | >25 µM | 0.13 µM
6 | Cc1cc(CNc2nc(N)nc3cccc(C)c23)no1 [Compound 19] | 0.11 µM | 1.74 µM | 0.051 µM
7 | COc1cccc2nc(N)nc(N[C@@H](C)[C@H](O)c3ccccc3)c12 [Compound 15] | 0.61 µM | >25 µM | 0.56 µM
8 | CCc1noc([C@@H](C)Nc2nc(N)nc3cccc(OC)c23)n1 (single isomer, unassigned) [Compound 25] | 1.95 µM | 6.62 µM | 0.49 µM
9 | Cc1cc(CNc2nc(N)nc3cc(F)ccc23)no1 [Compound 13] | 0.46 µM | 5.22 µM | 0.12 µM
10 | COc1cccc2nc(N)nc(N[C@H](C)c3nccs3)c12 (single isomer, unassigned) [Compound 10] | 0.42 µM | 12.3 µM | 0.11 µM
11 | CCn1ncnc1[C@H](C)Nc1nc(N)nc2cccc(OC)c12 (single isomer, unassigned) [Compound 21] | 6.1 µM | 8.85 µM | 0.54 µM
12 | COCCOc1cccc2nc(N)nc(NCc3cc(C)on3)c12 [Compound 29] | 0.082 µM | 8.15 µM | –

More lines, main results first:

Row | Human TLR 7 (LEC) (human TLR7) | Human TLR 8 (LEC) (human TLR8) | SMILES | minimal effective concentration [1]
13 | 0.76 µM | >25 µM | COc1cccc2nc(N)nc(N[C@H](c3ccccn3)C(F)(F)F)c12 (single isomer, unassigned) [Compound 3] | 0.47 µM
14 | 8.24 µM | >25 µM | CNC(=O)c1ccc2c(N[C@H](C)c3ccccn3)nc(N)nc2c1 (single isomer, unassigned) [Compound 27] | 5.04 µM
15 | 0.53 µM | 14.7 µM | Cc1ccc2c(N[C@H](C)c3ccccn3)nc(N)nc2c1 (single isomer, unassigned) [Compound 5] | 0.11 µM
16 | 0.92 µM | 19.8 µM | C[C@@H](Nc1nc(N)nc2cc(F)ccc12)c1ccccn1 (single isomer, unassigned) [Compound 4] | 0.59 µM
17 | 1.46 µM | >25 µM | COc1cccc2nc(N)nc(N[C@H](C)c3cccc(C)n3)c12 (single isomer, unassigned) [Compound 20] | 0.62 µM
18 | 4.94 µM | – | COC(=O)c1ccc2c(N[C@H](C)c3ccccn3)nc(N)nc2c1 (single isomer, unassigned) [Compound 8] | 2.11 µM
19 | 2.24 µM | >25 µM | C[C@@H](Nc1nc(N)nc2cc(C(=O)N3CCCC3)ccc12)c1ccccn1 (single isomer, unassigned) [Compound 28] | 1.57 µM
20 | 0.82 µM | 16.4 µM | C[C@@H](Nc1nc(N)nc2cc(Cl)ccc12)c1ccccn1 (single isomer, unassigned) [Compound 7] | 0.38 µM
21 | 14.3 µM | 11.0 µM | CC(Nc1nc(N)nc2cc(C(=O)N(C)C(C)C)ccc12)c1ccccn1 (stereo not shown) [Compound 24] | 1.75 µM
22 | 8.25 µM | 24.3 µM | C[C@H](Nc1nc(N)nc2cccc(F)c12)c1ccccn1 (single isomer, unassigned) [Compound 18] | 7.83 µM
